In patent US6979447B2, “Immunomodulation and effect on cell processes relating to serotonin family receptors” (Philadelphia Health and Education Corporation, priority 2001, dated 2005):
“Also recorded” adds a separate entry of the source.

Tests used:
human lymphocytes [1] = assay: Human mitogenic (ConA) stimulation, 3H-thymidine incorporation; type: cell-based; settings: for effect on activation / proliferative response: ConA 5 μg/ml, harvested 72 hours, FIGS. 7A, 8A, 9A; for effect on stimulation of ConA-stimulated human PBLs: reagents at 400 μM, time course, FIG. 4
Description: Blood from healthy volunteers was drawn using venipuncture, using Vacutainer collection sets and heparinized collection vials. The blood was diluted 1:1 using HBSS to a total volume of 30 ml in 50 ml conical tubes (Fisher Scientific, Co., Pittsburgh, Pa.). […] Cells from the buffy coats were collected and the residual Histopaque was washed away using repeated centrifugations in HBSS. After washes, cells were resuspended at 5 million cells per ml in RPMI, supplemented with 2% FBS. To remove adherent cells, the suspension was plated onto a 6 well flat-bottom plate (Corning Costar), 3 ml/well, and incubated for 2 hours at 37° C., 5% CO2. Non-adherent cells were harvested after this incubation, were counted and resuspended in RPMI supplemented with 10% human serum (Sigma).
All drugs were pre-plated before the cell suspension was added onto each well of a 96-well round-bottom plate. All experimental conditions were assayed in at least triplicate. Cells suspended in RPMI supplemented with 10% human serum were plated at 100,000 cells per well to a final volume of 200 μl. […] Control samples received no ConA stimulation. The plates were incubated at 37° C. and 5% CO2. One microCurie of tritiated thymidine was added to each well after 60 hours, and the plates were harvested 12 hours later.

T cells = assay: Macrophage media-conditioning study, T cell proliferation in conditioned media; type: cell-based, mouse; settings: for conditioning effect of the media: uptake inhibitor present during the conditioning phase
From the text: Femur and tibia bones were harvested from the hind limbs of 6-8 week old C57/B6J mice (Jackson Laboratories, Bar Harbor, Me.). The distal ends of the bones were removed, exposing the marrow plugs. Using a 22 gauge needle (Becton-Dickinson, Lincoln Park, N.J.), the marrow cavities were flushed with RPMI medium supplemented 2% FBS. The cell suspension was then passed through a nylon mesh to remove stromal cells. Red blood cells were lysed using ACK (ammonium chloride potassium lysis buffer; 0.15 M NH4Cl, 10 mM KHCO3, 0.1 mM EDTA) buffer as described in Current Protocols in Immunology (Section 3.1.5).
Cells were resuspended at 10^7 cells/ml in RPMI medium, containing 10% FBS, 500 units/ml of murine M-CSF, and 3 ml/well of cell suspension were plated onto a 6 well flat-bottom plate. […] Cells were grown for 4 days. Spleens of 6-8 week old BALB/c/BYJ were harvested, and single cell suspension was made. Red blood cells were removed as described above. Adherent cells were removed by 1.5 hour incubation on a nylon wool column, and suspension cells were collected. The BALB/c cells were then plated over the C57/B6 cells (see supra), at 1.2×10^6 cells/well, in 0.65 ml (bringing brought the final volume of each well to 1.3 ml). The cells were grown for 2.5 days. When appropriate, fluoxetine or BCH were added at the beginning of this incubation. The medium from the mixed cell cultures was harvested, centrifuged at 1200 RPM to remove cells, and filtered using a 0.22 microns syringe filter (Corning). This filtered medium was used to support another round of cell proliferation.

human lymphocytes [2] = assay: Human mixed lymphocyte reaction (allogeneic stimulation); type: cell-based; settings: allogeneic stimulation, harvested 120 hours, FIGS. 7B, 8B, 9B
From the text: Blood from two healthy, non-related, donors was taken as described above. Peripheral blood mononuclear cells were isolated as described previously elsewhere. The adherent cells were separated from the suspension cells as described previously for both donors. Suspension cells from both donors (donors A and B) were used as responders. The remaining adherent cells from each of the donors were used as stimulators against a different donor (suspension A against adherent B and adherent A against suspension B). The stimulator cells were irradiated at 35 Gy. Drugs were pre-plated onto 96 well, U-bottom plates in triplicate. 200,000 “stimulator” cells in RPMI supplemented with 10% human serum were then plated in each well. 200,000 “responder” cells in the same medium were then plated over stimulators to a final volume of 200 μl/well. Background controls received either no stimulator cells, or no responder cells. The plates were incubated at 37° C. and 5% CO2. 1 μCi of tritiated thymidine was added to each well after 4.5 days, and the plates were harvested 12 hours later.

[3] = system: allogeneic CTL response to P815 cells; assay: Murine allograft model, CTL killing of P815 target cells by splenocytes; type: in vivo, C57BL/6J mice; settings: for effect on allogeneic killing response: tail vein 300 μg/injection on days 5 and 7, sacrificed day 14, FIGS. 18A, 18B; for effect on allograft (CTL) response: tail vein bolus 200 μg/injection on days 6 and 8, sacrificed day 14, FIG. 13
Description: The in vivo validation screen used was an art-recognized murine allogeneic rejection model as described in Zhan et al., 2000. For this assay, a complete MHC miss-match system was employed wherein 5×10^6 P815 cells ([H-2^d] DBA/2 mastocytoma) were injected into the peritoneal cavity of C57BL/6J (H-2^b) mice on day 0 of the experiment. These mice typically generate a strong cytotoxic T lymphocyte (CTL) reaction in response to P815 cells. Following the initial P815 cell inoculation, the mice were allowed to develop a CTL response (this usually takes about 10-14 days). […] Mice were then sacrificed on day 14 of the experiment as indicated in the figures; and the allogeneic CTL response was assayed as described previously (Tretiakova et al., 2000, Nature Biotechnology 18:984-988). The primary spleen cells from the treated and untreated animals were used in the direct CTL readout. Freshly obtained primary spleen cells were incubated with the [^3H] labeled target cells (P815 cells) at 100:1, 50:1, 25:1, and 12.5:1 ratios for 3.5 hours at 37° C. and harvested using a PHD harvester. The percentage of specific killing was determined using the formula % kill=(S−E)/S, where S is the amount of the DNA retained by the target cells in the absence of the effector cells and E is the amount of retained DNA in the presence of the effector cells (expressed in counts per minute; cpm).
This is an art-recognized model of allograft […] rejection based on that described by […]. (2000). In this model, there is a complete MHC mismatch between the P815 cells (H-2^d) and the C57BL6 mouse (H-2^b), thus ensuring an aggressive immune response. The data disclosed in FIG. 13, depicts results of experiments that included 6 treatment groups, each group consisting of three mice. Each mouse received 5×10^6 P815 cells injected into the peritoneal cavity on day 0 of the study. The first group was an untreated control group, which was used to establish the baseline response of the mice against the allogeneic stimulus. These mice, without any further treatments, were sacrificed, as were the other treatment groups, on day 14 of the study and their splenocytes assayed for target-specific killing of the P815 cells.
The average kill observed for the untreated group was about 45% at an effector to target ratio of 100:1. […] The timing of the drug administration was selected to ensure that the T cells were fully activated prior to the drug treatment. The third group was treated with propanolol, a 5HT-1 antagonist. All of the 5HT receptor antagonist-treated groups were treated as described for the risperidone-treated group. The fourth group was treated chronically with CyclosporinA. The Cyclosporin A was administered ip at a dosage of 100 μg/injection starting two days prior to the onset of the study, i.e., at day-2, and the injections were continued on a daily basis for the duration of the study.
Finally, studies conducted in vivo using the CD8-dependent allograft rejection model, in which P815 cells (a rapidly growing cell line taken from a mastocytoma in a DBA mouse), were expanded and used to create a robust rejection response in a C57BL6 mouse. In this study the mice received 5×10^6 P815 cells injected into their peritoneal cavity on day 0 of the study. The first group was an untreated control group (naïve animals), used to acquire the baseline response of the mice against the allogeneic stimulus. The positive controls were treated with the allogeneic cells without any further treatments. These animals were used to assess the induced allogeneic response against the P815 cells.
All treatment groups were sacrificed on day 14 of the study and their splenocytes assayed for target-specific killing of the P815 cells (the averaged overall kill observed for the positive control group was about 45% at an effector to target ratio of 100:1). The serotonin-specific compounds were administered via tail vein injection (300 μg/injection) on days 5 and 7 of the study. […]

RPMI-8226 cells = assay: Hematoxylin-eosin / bis-benzamide staining of RPMI-8226 cytospins; type: cell-based, human; settings: 2 μM, 9 hour treatment, FIG. 28
Description: 2.0×10^5 RPMI-8226 cells were cultured, in 6-well culture plates, in the presence of the indicated drug concentrations, in a total of 5 mL RPMI-1640 supplemented with 10% FBS. Each well was harvested in its entirety and divided into two identical samples for cytospins.
1.0×10^5 RPMI-8226 cells from each treatment group were loaded into Cyto-funnels and centrifuged at 500 rpm for 4 minutes with medium acceleration. Slides were then fixed through graded methanol in PBS (100%, 5 minutes; 80%, 5 minutes; 50%, 5 minutes), washed for 5 minutes in PBS and stored in PBS at 4° C. until stained.
Cytospun slides were stained with Hematoxylin and Eosin, followed by the nuclear stain, bis-benzamide, rinsed and mounted according to standard staining protocols. Slides were visualized under both brightfield and fluorescent light to generate matched images of the same slide field (see, e.g., FIGS. 28 and 29).

## N[C@@H](Cc1ccc(Cl)cc1)C(=O)O (racemic) [PCPA, para-chlorophenylalanine]
Human lymphocytes [1]; ConA 1 μg/ml, human PBLs, FIG. 3
  effect on mitogenic response: inhibits the mitogenic response in a dose-dependent manner

## NC1(C(=O)O)CC2CCC1C2 (stereo not shown) [2-amino 2-norbornane carboxylic acid]
T cells
  conditioning effect of the media: can be prevented

## N[C@@H](Cc1c[nH]c2ccc(O)cc12)C(=O)O [5-hydroxy-tryptophan]
Human lymphocytes [1]; 25 μM, in the absence of PCPA, FIG. 3
  effect on proliferation response: significantly enhanced the proliferation response
Human lymphocytes [1]; added to PCPA-inhibited cells, FIG. 3
  reversal of PCPA inhibition of the mitogenic response: this inhibition can be reversed

## OC(CN1CCN(c2cccc(Cl)c2)CC1)C(c1ccccc1)c1ccccc1 (stereo not shown) [BRL 15572]
Human lymphocytes [1]
  effect on activation / proliferative response: no effect upon the proliferative response
Human lymphocytes [2]
  effect on activation / proliferative response: no effect upon the proliferative response

## CC(O)C(C)OC(=O)[C@@H]1C[C@@H]2c3cccc4c3c(cn4C(C)C)C[C@H]2N(C)C1 (stereo partly shown) [LY 53857]
Human lymphocytes [1]
  effect on activation / proliferative response: inhibit the activation response at pharmacologically relevant concentrations
Human lymphocytes [2]
  effect on activation / proliferative response: inhibit the activation response at pharmacologically relevant concentrations

## Cn1ccc2cc3c(cc21)CCN3C(=O)Nc1cccnc1 [SB 206553]
Human lymphocytes [1]
  effect on activation / proliferative response: inhibit the activation response at pharmacologically relevant concentrations
  in vitro effect on activation response / helper T cell proliferation (summary statement): immediate cessation of proliferation
Human lymphocytes [2]
  effect on activation / proliferative response: inhibit the activation response at pharmacologically relevant concentrations
[3]
  effect on allogeneic killing response: striking
  effect on allograft (CTL) response: inhibited the allograft response to varying degrees
[3]; three treated mice, FIG. 14
  individual mouse responses within treated group: Two of the treated mice had the allogeneic response completely suppressed; also recorded: Two of the three treated mice inhibited the allograft response to a degree equivalent to that observed in the Cyclosporin A-treated animals

## COc1ccccc1N1CCN(CCN(C(=O)C2CCCCC2)c2ccccn2)CC1 [WAY 100635]
Human lymphocytes [1]
  in vitro effect on activation response / helper T cell proliferation (summary statement): significantly inhibits the activation response

## CC[C@@]1(O)C(=O)OCc2c1cc1n(c2=O)Cc2cc3ccccc3nc2-1 [camptothecin]
RPMI-8226 cells
  chromatin / nuclear morphology: Extensive chromatin condensation and nuclear fragmentation

## CNCCC(Oc1ccc(C(F)(F)F)cc1)c1ccccc1 (stereo not shown) [fluoxetine]
T cells
  conditioning effect of the media: can be prevented

## CC[C@@H](CO)NC(=O)[C@@H]1C=C2c3cccc4c3c(cn4C)C[C@H]2N(C)C1 [methysergide]
[3]
  effect on allogeneic killing response: complete inhibition of the induced killing response; also recorded: abrogated the allogeneic killing response; also recorded: inhibition profile was striking
  effect on allograft (CTL) response: inhibited the allograft response to varying degrees

## NNCCc1ccccc1 [phenelzine]
Human lymphocytes [1]; ConA 0.1 and 1 μg/ml, FIGS. 5A and 5B
  drug concentration giving significant inhibition: 10 to 100 µM
Human lymphocytes [1]; higher ConA stimulation (10 μg/ml)
  drug concentration giving full inhibition: 100 to 400 µM
Human lymphocytes [1]; highest ConA dose, 10 μg/ml, harvest 72 hours, FIG. 5C
  effect on proliferative response: no inhibition was observed
Human lymphocytes [1]
  effect on stimulation of ConA-stimulated human PBLs: completely shut down the stimulation

## NCCc1c[nH]c2ccc(O)cc12 [serotonin, 5-hydroxytryptamine]
Human lymphocytes [1]; ConA 1 μg/ml, added to phenelzine-inhibited cells, 100 μM each, FIG. 6
  relief of phenelzine-induced inhibition: caused the assay to rebound to baseline levels
Human lymphocytes [1]; ConA 1 μg/ml, reagent 100 μM, FIG. 6
  effect on proliferative response: did not
Human lymphocytes [1]; ConA 0.1, 1 and 10 μg/ml, harvest 72 hours, FIG. 5
  effect on the assay across ConA concentrations: no effect on the assay until the highest dose of ConA
Human lymphocytes [1]
  effect on stimulation of ConA-stimulated human PBLs: enhanced the maximal stimulation of the cells
T cells; added to conditioned media, FIG. 1
  restoration of T cell proliferation in conditioned media: only marginally restored the assay
